In test [1] the test system is S. pneumoniae. It is filed as cell-based.
A further test deals with S. aureus. It is filed as cell-based.
Test [2] relates to ribosome erm-dimethylated at A2058. Kind of test: binding to the ribosome.
A further test relates to streptococci. Kind of test: organism not typed. It is filed as cell-based.
The next test concerns M. genitalium. In kind it is cell-based. The settings on record: M. genitalium (5 isolates).
Test [3] relates to S. pneumoniae. Kind of test: microbe, parasite or virus in culture. The note with it: Streptococcus pneumoniae. It is filed as cell-based.
The next test relates to M. hominis. It is filed as cell-based. The note with it: M. hominis (13 isolates).
Another test has as its system M. fermentans. In kind it is cell-based. The note with it: M. fermentans (15 isolates).
For a further test, the system named is U. parvum. Kind of test: MIC testing in 10B broth (colour change). In kind it is cell-based, Ureaplasma parvum. The settings on record: Ureaplasma parvum, U. parvum (10 isolates).
A further test has as its system U. urealyticum. Kind of test: MIC testing in 10B broth (colour change). It is filed as cell-based. The note with it: Ureaplasma urealyticum; U. urealyticum (10 isolates).
A further test has as its system M. pneumoniae. Kind of test: microbe, parasite or virus in culture. It is filed as cell-based.
In the next test the test system is N. meningitidis. Kind of test: MIC, CLSI broth microdilution, invasive isolates. It is filed as cell-based. On the procedure: Example. […] Colonization of the nasopharynx (NP) by NM can lead to invasive meningococcal disease. Chemoprophylaxis is used to eradicate NP colonization and prevent transmission to nonimmune contacts. […] 62 isolates (91.9% blood culture) of NM were collected from 29 medical centers in North and South America and Europe (1997-2008). […] Serological identification was performed for serogroups (SGs) B, C, Y and W135.
Background: Broth dilution looks for growth in wells or tubes with falling amounts of substance.

The next test relates to Mycobacterium bovis BCG. It is filed as cell-based.
The next test relates to Legionella pneumophila. Kind of test: microbe, parasite or virus in culture. In kind it is cell-based, L. pneumophila.
The test system of the next test is pneumococci. Kind of test: microbe, parasite or virus in culture. It is filed as cell-based, S. pneumoniae. The settings on record: Streptococcus pneumoniae.
The next test relates to group A streptococci. Kind of test: microbe, parasite or virus in culture. The settings on record: Streptococcus pyogenes. In kind it is cell-based, S. pyogenes.
Setting [4] is: Neisseria meningitidis, 62 N. meningitidis isolates.

The structures appear in SMILES notation. Values after ≈ are worked out from the molar mass of the structure shown. Values joined by “and” are separate entries in the source; they are usually repeats but may differ in a detail not shown here. Identical values can stand only once. Marks after values point to notes of the source that are not given here.

On to `CC[C@H]1OC(=O)[C@H](C)[C@@H](OC2CC(C)(OC)C(O)C(C)O2)[C@H](C)[C@@H](OC2OC(C)CC(N(C)C)C2O)[C@@](C)(OC)C[C@@H](C)C(=O)[C@H](C)[C@H]2N(CCCCn3cc(-c4ccccn4)nn3)C(=O)O[C@]12C` (stereo partly drawn) [Entry 20a], for which the MIC entry is “≦0.0625 μg/mL” with S. pneumoniae [1] and 8 µg/mL (≈ 8.22 µM) in the test with S. aureus.
For `CC[C@H]1OC(=O)[C@H](C)[C@@H](OC2CC(C)(OC)C(O)C(C)O2)[C@H](C)[C@@H](OC2OC(C)CC(N(C)C)C2O)[C@@](C)(OC)C[C@@H](C)C(=O)[C@H](C)[C@H]2N(CCCCn3cc(-c4cccnc4)nn3)C(=O)O[C@]12C` (stereo partly drawn) [Entry 20b], the MIC result is “≦0.0625 μg/mL” against S. pneumoniae [1] and 8 µg/mL (≈ 8.22 µM) in the test on S. aureus.
In the case of `CC[C@H]1OC(=O)[C@H](C)[C@@H](OC2CC(C)(OC)C(O)C(C)O2)[C@H](C)[C@@H](OC2OC(C)CC(N(C)C)C2O)[C@@](C)(OC)C[C@@H](C)C(=O)[C@H](C)[C@H]2N(CCCCn3cc(-c4cccc(N)c4)nn3)C(=O)O[C@]12C` (stereo partly drawn) [Entry 20c], the MIC result against S. pneumoniae [1] is “≦0.0625 μg/mL”; against S. aureus, 8 µg/mL (≈ 8.1 µM). The “binding to the ribosome” value in test [2] is given as “considerable binding”.
As to `CC[C@H]1OC(=O)[C@H](C)[C@@H](OC2CC(C)(OC)C(O)C(C)O2)[C@H](C)[C@@H](OC2OC(C)CC(N(C)C)C2O)[C@@](C)(OC)C[C@@H](C)C(=O)[C@H](C)[C@H]2N(CCCCn3cc(COc4c(Cl)cccc4Cl)nn3)C(=O)O[C@]12C` (stereo partly drawn) [Entry 20d], the MIC entry in the test on S. pneumoniae [1] was “≦0.0625 μg/mL”; against S. aureus, 8 µg/mL (≈ 7.47 µM).
As to `CC[C@H]1OC(=O)[C@H](C)[C@@H](OC2CC(C)(OC)C(O)C(C)O2)[C@H](C)[C@@H](OC2OC(C)CC(N(C)C)C2O)[C@@](C)(OC)C[C@@H](C)C(=O)[C@H](C)[C@H]2N(CCCCn3cc(Cn4nnc5ccccc54)nn3)C(=O)O[C@]12C` (stereo partly drawn) [Entry 20e], the MIC entry is “≦0.0625 μg/mL” against S. pneumoniae [1] and 8 µg/mL (≈ 7.79 µM) against S. aureus.
`CC(=O)NC[C@H]1CN(c2ccc(N3CCOCC3)c(F)c2)C(=O)O1` [Linezolid, linezolid]: the MIC50 was 1 µg/mL (≈ 2.96 µM) with streptococci; 2 µg/mL (≈ 5.93 µM) with M. hominis (Metamycoplasma hominis, read-out: MIC50); 1 µg/mL (≈ 2.96 µM) against M. fermentans (Mycoplasmopsis fermentans); greater than 256 µg/mL with U. parvum (read-out: MIC50); greater than 256 µg/mL in the test on U. urealyticum; 64 µg/mL (≈ 190 µM) in the test on M. pneumoniae (Mycoplasmoides pneumoniae). For the same compound, the MIC90 in the test with streptococci is 2 µg/mL (≈ 5.93 µM); against S. pneumoniae [3] it was 2 µg/mL (≈ 5.93 µM); with M. hominis (Metamycoplasma hominis, read-out: MIC90) it was 4 µg/mL (≈ 11.9 µM); with M. fermentans (Mycoplasmopsis fermentans), 4 µg/mL (≈ 11.9 µM); in the test on U. parvum (read-out: MIC90) it was greater than 256 µg/mL; against U. urealyticum it was greater than 256 µg/mL. In the test on M. pneumoniae (Mycoplasmoides pneumoniae), this compound gave an MIC90 of 128 µg/mL (≈ 379 µM). Besides, the “MIC 90%” value in the test with streptococci was 1 µg/mL (≈ 2.96 µM). Also, the “MIC Range” value in the test with streptococci was 0.25 to 2 µg/mL and 0.5 to 2 µg/mL; against M. genitalium it was 4 to 128 µg/mL; against M. hominis, 1 to 8 µg/mL; against M. fermentans, 0.5 to 4 µg/mL; against M. pneumoniae, 32 to 128 µg/mL.
`CO[C@H]1/C=C/O[C@@]2(C)Oc3c(C)c(O)c4c(O)c(c(/C=N/N5CCN(C)CC5)c(O)c4c3C2=O)NC(=O)/C(C)=C\C=C\[C@H](C)[C@H](O)[C@@H](C)[C@@H](O)[C@@H](C)[C@H](OC(C)=O)[C@@H]1C` [Rifampin]: in the test on N. meningitidis (CLSI (M100-S19, 2009) criteria), the “% Res.” value is on record as 0.0% and the “% Susc.” value is 100.0%. In the test with N. meningitidis (setting [4]), this compound showed an MIC of 0.008 to 0.12 µg/mL (≈ 0.00972 to 0.146 µM), an MIC50 of 0.015 µg/mL (≈ 0.0182 µM) and an MIC90 of 0.06 µg/mL (≈ 0.0729 µM). Besides, in the test on Mycobacterium bovis BCG (DETA-NO-induced growth arrest), the “reduction of lethality by growth arrest” value is given as “no effect”. In addition, the “MIC Range” value against Legionella pneumophila (LPN (30)) is listed as 0.03-0.06^a μg/ml. For the same compound, in the test with Legionella pneumophila (Legionella pneumophila), the MIC50 is 0.03 µg/mL (≈ 0.0365 µM) and the MIC90 came to 0.03 µg/mL (≈ 0.0365 µM).
`COc1c(N2C[C@@H]3CCCN[C@@H]3C2)c(F)cc2c(=O)c(C(=O)O)cn(C3CC3)c12` [moxifloxacin]: the MIC50 against pneumococci (pneumococci, L4 mutations (27)) turned out to be 0.25 µg/mL (≈ 0.623 µM); in the test on group A streptococci it was 0.25 µg/mL (≈ 0.623 µM). Besides, the MIC90 was determined as 0.5 µg/mL (≈ 1.25 µM) against pneumococci (pneumococci, L4 mutations (27)) and 0.25 µg/mL (≈ 0.623 µM) in the test on group A streptococci. In addition, the MIC in the test with pneumococci (read-out: MIC range, pneumococci, L4 mutations (27)) lay within 0.125 to 4 µg/mL (≈ 0.311 to 9.96 µM). The “activity during growth arrest relative to gatifloxacin” value with Mycobacterium bovis BCG (growth-arrested cells) amounted to 2 fold.

Source of the values: patent publication US9901592B2 (priority 2008, dated 2018).
